Patent US20060223841A1 (priority 2003, published 2006)

Assays:
[1] = Stability of ratio of the mixture of desloratadine polymorphic forms on storage (XRPD); type: physicochemical
Text: Copper radiation of 1.5418 Å was used.
In all cases samples were packed in polyethylene and store above conditions.

[2] = Stability under grinding by hand in mortar and pestle (XRD); settings: grinding by hand in mortar and pestle for one minute
[3] = Solubility of desloratadine; type: physicochemical
[4] = 25° C., 60% RH, 1 month (4 weeks)
[5] = 25° C., 60% RH, 2 months (8 weeks)
[6] = 25° C., 60% RH, 3 months (12 weeks)
[7] = 25° C., 60% RH, 6 months (24 weeks)
[8] = 40° C., 75% RH, 1 month (4 weeks)
[9] = 40° C., 75% RH, 2 months (8 weeks)
[10] = 40° C., 75% RH, 3 months (12 weeks)
[11] = 40° C., 75% RH, 6 months (24 weeks)

Clc1ccc2c(c1)CCc1cccnc1C2=C1CCNCC1 [Example 4 of Stability Tests, desloratadine]
Form 1 (%) ([1]; 25° C., 60% RH, 0 week): 76% | Form 2 (%) ([1]; 25° C., 60% RH, 0 week): 24% | Form 1 (%) [1, 4]: 82% | Form 2 (%) [1, 4]: 18% | Form 1 (%) ([1]; 25° C., 60% RH, 1 week): 87% | Form 2 (%) ([1]; 25° C., 60% RH, 1 week): 13% | Form 1 (%) [1, 5]: 86% | Form 2 (%) [1, 5]: 14% | Form 1 (%) ([1]; 25° C., 60% RH, 2 weeks): 80% | Form 2 (%) ([1]; 25° C., 60% RH, 2 weeks): 20% | Form 1 (%) [1, 6]: 81% | Form 2 (%) [1, 6]: 19% | Form 1 (%) [1, 7]: 84% | Form 2 (%) [1, 7]: 16% | Form 1 (%) ([1]; 40° C., 75% RH, 0 week): 76% | Form 2 (%) ([1]; 40° C., 75% RH, 0 week): 24% | Form 1 (%) [1, 8]: 88% | Form 2 (%) [1, 8]: 12% | Form 1 (%) ([1]; 40° C., 75% RH, 1 week): 76% | Form 2 (%) ([1]; 40° C., 75% RH, 1 week): 24% | Form 1 (%) [1, 9]: 85% | Form 2 (%) [1, 9]: 15% | Form 1 (%) ([1]; 40° C., 75% RH, 2 weeks): 82% | Form 2 (%) ([1]; 40° C., 75% RH, 2 weeks): 18% | Form 1 (%) [1, 10]: 82% | Form 2 (%) [1, 10]: 18% | Form 1 (%) [1, 11]: 82% | Form 2 (%) [1, 11]: 18%

Clc1ccc2c(c1)CCc1cccnc1C2=C1CCNCC1 [50:50, desloratadine]
change in the XRD pattern after grinding [2]: do not show any substantial change

Clc1ccc2c(c1)CCc1cccnc1C2=C1CCNCC1 [Example 3 of Stability Tests, desloratadine]
Form 1 (%) ([1]; 25° C., 60% RH, 0 week): 74% | Form 2 (%) ([1]; 25° C., 60% RH, 0 week): 26% | Form 1 (%) [1, 4]: 79% | Form 2 (%) [1, 4]: 21% | Form 1 (%) ([1]; 25° C., 60% RH, 1 week): 79% | Form 2 (%) ([1]; 25° C., 60% RH, 1 week): 21% | Form 1 (%) [1, 5]: 75% | Form 2 (%) [1, 5]: 25% | Form 1 (%) ([1]; 25° C., 60% RH, 2 weeks): 74% | Form 2 (%) ([1]; 25° C., 60% RH, 2 weeks): 26% | Form 1 (%) [1, 6]: 74% | Form 2 (%) [1, 6]: 26% | Form 1 (%) [1, 7]: 77% | Form 2 (%) [1, 7]: 23% | Form 1 (%) ([1]; 40° C., 75% RH, 0 week): 74% | Form 2 (%) ([1]; 40° C., 75% RH, 0 week): 26% | Form 1 (%) [1, 8]: 78% | Form 2 (%) [1, 8]: 22% | Form 1 (%) ([1]; 40° C., 75% RH, 1 week): 77% | Form 2 (%) ([1]; 40° C., 75% RH, 1 week): 23% | Form 1 (%) [1, 9]: 78% | Form 2 (%) [1, 9]: 22% | Form 1 (%) ([1]; 40° C., 75% RH, 2 weeks): 81% | Form 2 (%) ([1]; 40° C., 75% RH, 2 weeks): 19% | Form 1 (%) [1, 10]: 75% | Form 2 (%) [1, 10]: 25% | Form 1 (%) [1, 11]: 75% | Form 2 (%) [1, 11]: 25%

Clc1ccc2c(c1)CCc1cccnc1C2=C1CCNCC1 [Example 2 of Stability Tests, desloratadine]
Form 1 (%) ([1]; 25° C., 60% RH, 0 week): 62% | Form 2 (%) ([1]; 25° C., 60% RH, 0 week): 38% | Form 1 (%) [1, 4]: 66% | Form 2 (%) [1, 4]: 34% | Form 1 (%) ([1]; 25° C., 60% RH, 1 week): 65% | Form 2 (%) ([1]; 25° C., 60% RH, 1 week): 35% | Form 1 (%) [1, 5]: 67% | Form 2 (%) [1, 5]: 33% | Form 1 (%) ([1]; 25° C., 60% RH, 2 weeks): 61% | Form 2 (%) ([1]; 25° C., 60% RH, 2 weeks): 39% | Form 1 (%) [1, 6]: 66% | Form 2 (%) [1, 6]: 34% | Form 1 (%) ([1]; 40° C., 75% RH, 0 week): 62% | Form 2 (%) ([1]; 40° C., 75% RH, 0 week): 38% | Form 1 (%) [1, 8]: 65% | Form 2 (%) [1, 8]: 35% | Form 1 (%) ([1]; 40° C., 75% RH, 1 week): 63% | Form 2 (%) ([1]; 40° C., 75% RH, 1 week): 37% | Form 1 (%) [1, 9]: 65% | Form 2 (%) [1, 9]: 35% | Form 1 (%) ([1]; 40° C., 75% RH, 2 weeks): 64% | Form 2 (%) ([1]; 40° C., 75% RH, 2 weeks): 36%

Clc1ccc2c(c1)CCc1cccnc1C2=C1CCNCC1 [desloratadine, 8-chloro-6,11-dihydro-11-(4-piperidylidene)-5H-benzo[5,6] cyclohepta[1,2-b]pyridine]
solubility [3]: very low

Clc1ccc2c(c1)CCc1cccnc1C2=C1CCNCC1 [75:25, desloratadine]
change in the XRD pattern after grinding [2]: do not show any substantial change

Clc1ccc2c(c1)CCc1cccnc1C2=C1CCNCC1 [25:75, desloratadine]
change in the XRD pattern after grinding [2]: do not show any substantial change

Clc1ccc2c(c1)CCc1cccnc1C2=C1CCNCC1 [Form I, desloratadine, reference compound]
change in the XRD pattern after grinding [2]: stable

Clc1ccc2c(c1)CCc1cccnc1C2=C1CCNCC1 [Example 1 of Stability Tests, desloratadine]
Form 1 (%) ([1]; 25° C., 60% RH, 0 week): 57% | Form 2 (%) ([1]; 25° C., 60% RH, 0 week): 43% | Form 1 (%) [1, 4]: 55% | Form 2 (%) [1, 4]: 45% | Form 1 (%) ([1]; 25° C., 60% RH, 1 week): 59% | Form 2 (%) ([1]; 25° C., 60% RH, 1 week): 41% | Form 1 (%) [1, 5]: 63% | Form 2 (%) [1, 5]: 37% | Form 1 (%) ([1]; 25° C., 60% RH, 2 weeks): 53% | Form 2 (%) ([1]; 25° C., 60% RH, 2 weeks): 47% | Form 1 (%) [1, 6]: 52% | Form 2 (%) [1, 6]: 48% | Form 1 (%) ([1]; 40° C., 75% RH, 0 week): 57% | Form 2 (%) ([1]; 40° C., 75% RH, 0 week): 43% | Form 1 (%) [1, 8]: 50% | Form 2 (%) [1, 8]: 50% | Form 1 (%) ([1]; 40° C., 75% RH, 1 week): 46% | Form 2 (%) ([1]; 40° C., 75% RH, 1 week): 54% | Form 1 (%) [1, 9]: 39% | Form 2 (%) [1, 9]: 61% | Form 1 (%) ([1]; 40° C., 75% RH, 2 weeks): 43% | Form 2 (%) ([1]; 40° C., 75% RH, 2 weeks): 57%

Clc1ccc2c(c1)CCc1cccnc1C2=C1CCNCC1 [84:16, desloratadine]
change in the XRD pattern after grinding [2]: do not show any substantial change

Clc1ccc2c(c1)CCc1cccnc1C2=C1CCNCC1 [Form II, desloratadine, reference compound]
change in the XRD pattern after grinding [2]: stable
